Experimental findings from ChEMBL document CHEMBL3351876 (Eur J Med Chem, 2014) are described below.

The structures appear in SMILES notation. pIC50: −log10 of the molar value.

The subject of one assay is Plasmodium falciparum. Description: Antimalarial activity against chloroquine-resistant ring stage Plasmodium falciparum W2 assessed as parasitemia after 48 hrs by flow cytometry. To be noted: W2, 48 h. The format is functional, organism-based.
Assay [1] can be described thus: Selectivity index, ratio of CC50 for human HeLa cells to IC50 for chloroquine-resistant ring stage Plasmodium falciparum W2. The format is functional.
The test system of the next assay is HeLa. Briefly: Cytotoxicity against human HeLa cells after 24 hrs by trypan blue exclusion assay. The format is cell-based.
The next assay has as its target Heme. Briefly: Binding affinity to heme assessed as inhibition of beta-haemozoin formation by UV-vis spectra analysis.

In the case of `CCCCN1C(=O)/C(=C/C=C/c2ccccc2)NC1=S`, the pIC50 with Plasmodium falciparum was less than 5.00.

In the case of `CCCCNC(=S)N[C@@H]1C(=O)N(c2ccc(C)cc2)[C@@H]1/C=C/c1ccccc1`, the negative logarithm of the IC50 (pIC50) in the assay on Plasmodium falciparum is less than 5.00.

In the case of `O=C1[C@H](NC(=S)Nc2ccnc3cc(Cl)ccc23)[C@H](/C=C/c2ccccc2)N1C1CCCCC1`, the negative logarithm of the IC50 (pIC50) with Plasmodium falciparum is 5.21.

Consider `O=C1/C(=C/C=C/c2ccccc2)NC(=S)N1CCCCCCNc1ccnc2cc(Cl)ccc12`, for which the negative-log IC50 (pIC50) with Plasmodium falciparum was 6.41.

As to `Cc1ccc(N2C(=O)/C(=C/C=C/c3ccccc3)NC2=S)cc1`, the negative-log IC50 (pIC50) with Plasmodium falciparum is less than 5.00.

Take `O=C1[C@H](NC(=S)Nc2ccnc3cc(Cl)ccc23)[C@H](/C=C/c2ccccc2)N1c1ccc(Br)cc1`: the pIC50 in the assay on Plasmodium falciparum was 5.24.

Regarding `O=C1[C@H](NC(=S)Nc2ccnc3cc(Cl)ccc23)[C@H](/C=C/c2ccccc2)N1c1ccc(F)cc1`, in the assay on Plasmodium falciparum, the pIC50 is less than 5.00.

`Cc1ccc(N2C(=O)[C@@H](NC(=S)NC3CCCCC3)[C@H]2/C=C/c2ccccc2)cc1`: in the assay on Plasmodium falciparum, the pIC50 is less than 5.00.

`O=C1/C(=C/C=C/c2ccccc2)NC(=S)N1c1ccc(F)cc1`: the pIC50 in the assay on Plasmodium falciparum was less than 5.00.

In the case of `Cc1ccc(NC(=S)N[C@@H]2C(=O)N(c3ccc(C)cc3)[C@@H]2/C=C/c2ccccc2)cc1`, the pIC50 in the assay on Plasmodium falciparum was less than 5.00.

Turning to `O=C1[C@H](NC(=S)Nc2ccnc3cc(Cl)ccc23)[C@H](/C=C/c2ccccc2)N1c1ccccc1`, the pIC50 in the assay with Plasmodium falciparum is less than 5.00.

With `O=C1[C@H](NC(=S)Nc2ccnc3cc(Cl)ccc23)[C@H](/C=C/c2ccccc2)N1c1ccc(Cl)cc1`, the negative logarithm of the IC50 (pIC50) in the assay with Plasmodium falciparum is 5.06.

In the case of `CC(C)CN1C(=O)/C(=C/C=C/c2ccccc2)NC1=S`, in the assay with Plasmodium falciparum, the pIC50 was less than 5.00.

For `Cc1ccc(N2C(=O)[C@H](NC(=S)Nc3ccnc4cc(Cl)ccc34)[C@@H]2/C=C/c2ccccc2)cc1`, the negative-log IC50 (pIC50) in the assay with Plasmodium falciparum was less than 5.00.

For `NCCN1C(=O)/C(=C/C=C/c2ccccc2)NC1=S`, the pIC50 with Plasmodium falciparum was less than 5.00.

For `O=C1/C(=C/C=C/c2ccccc2)NC(=S)N1CCCNc1ccnc2cc(Cl)ccc12`, the pIC50 with Plasmodium falciparum is 7.37; in the assay with HeLa, 4.04; at Heme, 4.70. Moreover, in assay [1], the “Ratio IC50” value was 2139.

Regarding `Cc1ccc(N2C(=O)[C@@H](NC(=S)NCC(C)C)[C@H]2/C=C/c2ccccc2)cc1`, the pIC50 in the assay on Plasmodium falciparum is less than 5.00.

On to `O=C1/C(=C/C=C/c2ccccc2)NC(=S)N1CCCCNc1ccnc2cc(Cl)ccc12`, for which the pIC50 in the assay with Plasmodium falciparum is 7.24; in the assay on HeLa, less than 4.00; at Heme, 4.55. The “Ratio IC50” value in assay [1] is reported as greater than 1747.

With `Cc1ccc(N2C(=O)[C@@H](NC(=S)Nc3ccc(F)cc3)[C@H]2/C=C/c2ccccc2)cc1`, the negative logarithm of the IC50 (pIC50) in the assay on Plasmodium falciparum was less than 5.00.

Consider `O=C1/C(=C/C=C/c2ccccc2)NC(=S)N1CCNc1ccnc2cc(Cl)ccc12`, for which the results for the negative-log IC50 (pIC50) with Plasmodium falciparum, in the assay on HeLa and on Heme were 7.40, 4.14 and 4.86, respectively. Further, the “Ratio IC50” value in assay [1] is 1807.

As for `O=C1/C(=C/C=C/c2ccccc2)NC(=S)N1C1CCCCC1`, the pIC50 with Plasmodium falciparum is less than 5.00.
